In patent US4200575A, “7[(2-Thiazolyl)-2-(oxoimino)acetamido]cephalosporin derivatives” (Takeda Chemical Industries, Ltd., priority 1977, dated 1980):

Legend:
Assay in all cases: Minimal inhibitory concentration (M.I.C.), agar dilution method
Details in all cases: TSA, inoculum 10^7 /ml
S. aureus 1840 = type: cell-based, Staphylococcus aureus
Excerpt: (§1) (a) Determination of minimal inhibitory concentrations (Tables 1 to 8):
(§2) Procedure: agar dilution method

S. aureus 209P = type: cell-based, Staphylococcus aureus
Excerpt: as §1, §2

E. coli NIHJ JC-2 = type: cell-based, Escherichia coli
Excerpt: as §1, §2

E. coli T-7 = type: cell-based, Escherichia coli
Excerpt: as §1, §2

E. coli 0-111 = type: cell-based, Escherichia coli
How it was run: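 MIC against E. coli O-111 was determined by agar dilution.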

K. pneumoniae DT = type: cell-based, Klebsiella pneumoniae
Excerpt: as §1, §2

K. pneumoniae GN 3835 = type: cell-based, Klebsiella pneumoniae
Excerpt: as §1, §2

S. marcescens IFO 12648 = type: cell-based, Serratia marcescens
Excerpt: as §1, §2

S. marcescens TN 24 = type: cell-based, Serratia marcescens
Excerpt: as §1, §2

P. vulgaris GN 4413 = type: cell-based, Proteus vulgaris
Excerpt: as §1, §2

P. vulgaris IFO 3988 = type: cell-based, Proteus vulgaris
Excerpt: as §1, §2

P. mirabilis GN 4359 = type: cell-based, Proteus mirabilis
Excerpt: as §1, §2

P. morganii IFO 3168 = type: cell-based, Proteus morganii
Excerpt: as §1, §2

P. rettgeri GN4733 = type: cell-based, Proteus rettgeri
Excerpt: as §1, §2

P. rettgeri TN 338 = type: cell-based, Proteus rettgeri
Excerpt: as §1, §2

E. cloacae TN 1282 = type: cell-based, Enterobacter cloacae
Excerpt: as §1, §2

C. freundii GN 1706 = type: cell-based, Citrobacter freundii
Excerpt: as §1, §2

C. freundii GN 99 = type: cell-based, Citrobacter freundii
Excerpt: as §1, §2

| Compound | minimal inhibitory concentration (M.I.C.) (S. aureus 1840) | minimal inhibitory concentration (M.I.C.) (S. aureus 209P) | minimal inhibitory concentration (M.I.C.) (E. coli NIHJ JC-2) | minimal inhibitory concentration (M.I.C.) (E. coli T-7) | minimal inhibitory concentration (M.I.C.) (E. coli 0-111) | minimal inhibitory concentration (M.I.C.) (K. pneumoniae DT) | minimal inhibitory concentration (M.I.C.) (K. pneumoniae GN 3835) | minimal inhibitory concentration (M.I.C.) (S. marcescens IFO 12648) | minimal inhibitory concentration (M.I.C.) (S. marcescens TN 24) | minimal inhibitory concentration (M.I.C.) (P. vulgaris GN 4413) | minimal inhibitory concentration (M.I.C.) (P. vulgaris IFO 3988) | minimal inhibitory concentration (M.I.C.) (P. mirabilis GN 4359) | minimal inhibitory concentration (M.I.C.) (P. morganii IFO 3168) | minimal inhibitory concentration (M.I.C.) (P. rettgeri GN4733) | minimal inhibitory concentration (M.I.C.) (P. rettgeri TN 338) | minimal inhibitory concentration (M.I.C.) (E. cloacae TN 1282) | minimal inhibitory concentration (M.I.C.) (C. freundii GN 1706) | minimal inhibitory concentration (M.I.C.) (C. freundii GN 99) |
| --- | --- | --- | --- | --- | --- | --- | --- | --- | --- | --- | --- | --- | --- | --- | --- | --- | --- | --- |
| CNC(=O)O/N=C(\C(=O)NC1C(=O)N2C(C(=O)O)=C(CSc3nnnn3CCN(C)C)CSC12)c1csc(=N)[nH]1 (stereo not drawn) [Example IV - 3, 7-[2-(2-imino-4-thiazolin-4-yl)-2-methylcarbamoyloximinoacetamido]-3-[1-(2-dimethylammonium)ethyl-1H-tetrazol-5-yl]thiomethyl-3-cephem-4-carboxylate (syn-isomer)] | 3.13 | 1.56 | 0.39 | 3.13 | ≤ 0.2 | ≤ 0.2 | 0.39 | 6.25 | 6.25 | 100 | 0.39 | 0.39 | 0.39 | 0.39 | ≤ 0.2 | 1.56 | 0.78 | ≤ 0.2 |
| CCNC(=O)O/N=C(\C(=O)NC1C(=O)N2C(C(=O)O)=C(C)CSC12)c1csc(=N)[nH]1 (stereo not drawn) [Example II - 11] | 25 | 25 | 6.25 | 12.5 | 1.56 | 1.56 | 3.13 | 100 | 100 | 50 | 3.13 | 1.56 | 25 | 0.39 | 0.05 | 25 | 12.5 | 6.25 |
| CC(C)NC(=O)O/N=C(\C(=O)NC1C(=O)N2C(C(=O)O)=C(CSc3nnnn3C)CSC12)c1csc(=N)[nH]1 (stereo not drawn) [Example II - 18] | 3.13 | 1.56 | 0.2 | 3.13 | 0.024 | 0.1 | 1.56 | 3.13 | 3.13 | 25 | 0.1 | 0.39 | 0.78 | 0.2 | ≤ 0.012 | 3.13 | 0.78 | 0.39 |
| CC1=C(C(=O)O)N2C(=O)C(NC(=O)/C(=N\OC(=O)NC(C)C)c3csc(=N)[nH]3)C2SC1 (stereo not drawn) [Example II - 19] | 25 | 25 | 6.25 | 25 | 3.13 | 3.13 | 6.25 | 100 | > 100 | 50 | 12.5 | 3.13 | 50 | 0.39 | 0.1 | 100 | 12.5 | 12.5 |
